These are literature values, as cited in patent US10328004B2, “Sunscreen cosmetic” (SHISEIDO COMPANY, LTD., priority 2015, dated 2019).

The conditions of the data set: UVB wavelength range.

As to `CCCCC(CC)COC(=O)c1ccc(Nc2nc(Nc3ccc(C(=O)OCC(CC)CCCC)cc3)nc(Nc3ccc(C(=O)OCC(CC)CCCC)cc3)n2)cc1` (stereo not shown) [Ethylhexyl triazone], the maximum absorption wavelength is 312 nm.
